This passage reports RP-LC retention time results from the METLIN SMRT retention time set (Domingo-Almenara et al. 2019).

This data set in a line: gradient 5% acetonitrile 3 min, to 50% in 2 min, to 85% in 15 min, held 3 min, 100 µL/min. The note with it: column: Zorbax Extend-C18 2.1 x 50 mm; eluents: water / acetonitrile, 0.1% formic acid. The method, boiled down: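 Pure standards were run in mixtures of ~100 molecules by HPLC coupled to a quadrupole time-of-flight mass spectrometer. The column was a Zorbax Extend-C18 (2.1 × 50 mm, 1.8 μm) at 100 μL/min, with water and acetonitrile each containing 0.1% formic acid, in positive and negative ionization mode. Dead and dwell volumes were 40 μL and 900 μL. Retention time was taken from computationally picked adduct peaks, each manually inspected, with data collected over 3 months.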
`Cc1ccc(-c2nnc(-c3nn(C)c4c3CN(S(=O)(=O)c3ccc5c(c3)OCCO5)CC4)o2)cc1` returned an RP-LC retention time of 975 s.
In turn, `Cc1nnc(C2CCCN(C(=O)c3ccc4nsnc4c3)C2)s1` (centres undefined) had an RP-LC retention time of 651 s.
To `Cc1ccc(CN2CCc3nc(N4CCCC4)ncc3C2)cc1C` belongs 640 s.
To `CCn1c(=O)c2ccccc2n(Cc2nc(-c3ccc(OC(C)C)cc3)no2)c1=O` belongs 1050 s; to `CC(C)(C)c1csc(-c2csc(S(=O)(=O)NC3CCCCC3)c2)n1`, 1320 s; to `Cc1ccc(N2CC(c3noc(-c4ccsc4)n3)CC2=O)cc1` (centres undefined), 932 s.
The molecule `COCCn1ccc2nc(C)c(C(=O)Nc3ccc4c(c3)OCO4)cc2c1=O` yielded an RP-LC retention time of 666 s.
The figure for `COC(=O)c1cccc(C(=O)N2CCc3ccccc3C2)n1` is 769 s; for `CCOc1ccccc1NC(=O)N1CCC([C@@H]2[C@H](OC)C(=O)N2C(C)C)CC1` it is 846 s; for `Cc1nc2c(NC(=O)c3ccc(C(F)(F)F)s3)cccn2n1` it is 900 s.
The figure for `CCOc1cc(=O)n2c(c1C(=O)Nc1ccc(OC)cc1OC)CCCC2` is 706 s.
Turning to `O=C(NCCCN1CCCC1)c1cccc(N2CCNC(c3ccccc3)C2)n1` (centres undefined), the RP-LC retention time was determined as 694 s.
Turning to `CCn1c(=O)c(NCc2ccc(C)c(C)c2)nc2ccncc21`, the RP-LC retention time turned out to be 672 s.
To `CC(C)c1cc(C(=O)Nc2ccccc2)no1` belongs 969 s; to `CCN(CC)c1nc(C(=O)Nc2ccccc2OC)nc2nc(C)cc(C)c12`, 732 s.
`CCc1ccc(N2C(=O)CN(S(=O)(=O)CC)CC2(C)C(=O)NCc2ccccc2)cc1` (centres undefined) returned an RP-LC retention time of 868 s.
In turn, `CCc1nc2cc(N3CCCC(C(=O)NCCN4CCN(C)CC4)C3)cnc2nc1CC` (centres undefined) yielded an RP-LC retention time of 583 s.
To `O=C(Cn1nc2n(c1=O)CCCCC2)Nc1ccc(Cl)cc1` belongs 730 s; to `Cc1ccc(C2NC(=O)N(CC(=O)Nc3cc(F)cc(F)c3)C3=C2C(=O)OC3)cc1` (centres undefined), 844 s.
As for `COc1ccccc1NC(=O)CN1CCC(c2nc(-c3cccs3)no2)CC1`, the RP-LC retention time turned out to be 682 s.
The figure for `CCn1nccc1C(=O)Nc1cc(-c2cc3ccccc3n2CC)[nH]n1` is 876 s; for `CCOc1ccc(N2C(=O)C3N=NN(Cc4nc(-c5ccc(C)cc5)no4)C3C2=O)cc1` (centres undefined) it is 1040 s; for `O=C1NCCCn2cc(S(=O)(=O)NCc3ccc(OC(F)(F)F)cc3)cc21` it is 740 s.
To `COCCC(=O)Nc1cnn(-c2ncc(N3CCCC3)cn2)c1` belongs 642 s.
To `Cc1c(S(=O)(=O)NCC(c2cccnc2)c2cn(C)c3ccccc23)cnn1C(F)F` (centres undefined) belongs 698 s.
`CCc1c(C2CCN(C(=O)c3ccc4c(c3)OCO4)CC2)noc1N` returned an RP-LC retention time of 696 s.
The figure for `COc1ccc(NC(=O)N2CCC(n3c(-c4ccoc4)nc4cccnc43)C2)cc1` (centres undefined) is 698 s; for `CCc1cccc(NC(=O)c2sc(-c3cn(C)c4ncccc34)nc2C)c1` it is 1040 s; for `Cc1noc(C2CN(C(=O)Nc3c(F)cccc3F)CC23CCOCC3)n1` (centres undefined) it is 654 s.
To `O=C(Nc1cccc(Cl)c1)N1CCC(n2c(C(F)(F)F)nc3cccnc32)CC1` belongs 961 s; to `CCc1csc(-c2ccc(N3CCN(C(=O)C4COc5ccccc5O4)CC3)nc2)n1` (centres undefined), 1030 s.
Regarding `O=C(COc1ncccn1)NC1CCCCC1`, the RP-LC retention time was 624 s.
Molecule `CCn1c(=O)c(N2CCN(C(=O)Nc3ccc(Br)c(C)c3)CC2)nc2cccnc21` gave an RP-LC retention time of 1060 s.
With `Nc1nc(Nc2ccccc2F)nc2ccccc12`, the RP-LC retention time stood at 600 s.
